Several values for one entry are separate records, joined by “and”; a condition that tells them apart may be missing. Identical values can stand only once.
How the values were obtained:
wt IDH1 [1] = target: T1, wt IDH1 (Homo sapiens, UniProt O75874); test: Absorbance assay: kinetics of reductive reaction (2OG to isocitrate) by wt IDH1; type: biochemical; details: wt IDH1, reductive reaction with Mg^2+
T1 construct: made in house; host or cells: Escherichia coli BL21(DE3) pLyS
Procedure: (§1) All experiments were performed in (at least) triplicate.
(§2) KM values were determined by varying concentrations of the substrate/cofactor under investigation while maintaining the concentrations of other components using standard conditions. […] Graphs were fitted using GraphPad Prism to obtain kinetic parameters.

wt IDH1 [2] = target: T1, wt IDH1; test: Absorbance assay (NADPH, 340 nm): kinetics of oxidative reaction (isocitrate to 2OG) by wt IDH1; type: biochemical
Procedure: as §1, §2

[3] = ITC, metal ion binding to DL-isocitrate; details: read-out: KD for metal ion binding to DL-isocitrate; metal ion (10 mM), DL-isocitrate (500 µM), 50 mM Tris-HCl, pH 7.5
Procedure: ITC experiments were conducted using a Malvern MicroCal PEAQ-ITC Automated machine. In general, the protein was prepared in 50 mM Tris-HCl ± 5 mM metal chloride salts at pH 7.5; substrates were dissolved in the same buffer. Four hundred microlitres of cell solution and 200 µL of titrant were transferred to an ITC plate. Titrations were conducted at 25 °C with an initial delay of 60 s and a stir speed of 750 r.p.m. The injection setup consisted of 19 injections that have one initial injection of 0.4 µL and 18 injections of 2.0 µL each with 150 s between the injections. The thermodynamic parameters were obtained using the MicroCal PEAQ-ITC analysis software.

wt IDH1 [4] = target: T1, wt IDH1; test: Differential scanning fluorimetry (DSF) thermal shift, wt IDH1; type: binding; details: for Δ in Tm: Fig. 2e; for thermal stabilisation: wt IDH1, Mg^2+ alone, 0.032–20 mM
Procedure: Thermal shift experiments were carried out using Sypro Orange dye and a CFX96 Touch^TM Real-Time PCR Detection System (Bio-Rad)[69]. […] The standard assay buffer contains 50 mM Tris-HCl at pH 7.5. Various concentrations of substrates were mixed with IDH1 for thermal stabilisation studies. […] Bio-Rad CFX Manager was used to determine the melting temperature, Tm.

wt IDH1 [5] = target: T1, wt IDH1; test: Absorbance assay: effect of metal ions on catalysis and inhibition of wt IDH1; type: biochemical; details: wt IDH1, metal ions 10 mM
wt IDH1 [6] = target: T1, wt IDH1; test: Isothermal titration calorimetry (ITC), binding to wt IDH1; details: alone, EDTA-treated wt IDH1, 50 mM Tris-HCl, pH 7.5
[7] = wt IDH1, oxidative reaction with Mg^2+ (10 mM MgCl2)

T1 sequence (O75874 2-414): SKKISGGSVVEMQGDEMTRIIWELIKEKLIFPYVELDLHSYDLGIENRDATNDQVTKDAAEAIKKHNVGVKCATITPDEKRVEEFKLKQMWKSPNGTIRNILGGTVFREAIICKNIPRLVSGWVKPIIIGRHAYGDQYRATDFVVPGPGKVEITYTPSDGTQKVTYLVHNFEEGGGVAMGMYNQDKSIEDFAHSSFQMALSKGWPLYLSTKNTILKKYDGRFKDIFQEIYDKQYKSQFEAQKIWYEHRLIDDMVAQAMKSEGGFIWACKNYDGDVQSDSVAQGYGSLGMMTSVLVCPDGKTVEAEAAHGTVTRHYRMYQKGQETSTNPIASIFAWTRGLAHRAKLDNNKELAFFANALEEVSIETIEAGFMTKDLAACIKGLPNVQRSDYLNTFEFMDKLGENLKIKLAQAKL

- kcat (wt IDH1 [1]): 2.1 ± 0.1 s⁻¹
- Velocity (wt IDH1 [2]; Fig. S2d, [MgCl2] 15.625 μM): 0.01053 µM/s and 0.01316 µM/s
- Velocity (wt IDH1 [2]; Fig. S2d, [MgCl2] 500 μM): 0.09476 µM/s and 0.07896 µM/s
- kcat (wt IDH1 [2]; wt IDH1, oxidative reaction with Mg^2+): 50 ± 4 s⁻¹
- Km (wt IDH1 [2]; [7]): 36 ± 4 µM
- Vmax (wt IDH1 [2]; [7]): 214 ± 5 nM/s
- Km (wt IDH1 [2]; wt IDH1 isocitrate oxidation, in the presence of 150 mM NaCl): 94 µM
- Kd [3]: 1500 µM
- Δ in Tm (wt IDH1 [4]; wt IDH1, 0.8 mM MgCl2, replicates): -0.3 °C and -0.1 °C (2×)
- Δ in Tm (wt IDH1 [4]; wt IDH1, 4 mM MgCl2, replicates): -0.1 °C
- Δ in Tm (wt IDH1 [4]; wt IDH1, 20 mM MgCl2, replicates): -0.5 °C and -0.1 °C (2×)
- thermal stabilisation (wt IDH1 [4]): no thermal shift
- thermal stabilisation (wt IDH1 [4]; listed as Mg^2+): does not stabilise
- thermal stabilisation (shift in Tm) (wt IDH1 [4]; wt IDH1, divalent metal ions (5 mM), 50 mM Tris-HCl, pH 7.5): less stabilising effect
- effect of metal ion on catalysis (wt IDH1 [5]): promoted
- Kd (wt IDH1 [6]): > 8000 µM
Compound: [Cl-].[Cl-].[Mg+2] [MgCl2]
- Velocity (wt IDH1 [2]; Fig. S2c, [MgCl2] 1.95312 μM): 0.01456 µM/s and 0.01492 µM/s and 0.01895 µM/s
- Velocity (wt IDH1 [2]; Fig. S2c, [MgCl2] 3.90625 μM): 0.02158 µM/s and 0.02123 µM/s and 0.02246 µM/s
- Velocity (wt IDH1 [2]; Fig. S2c, [MgCl2] 7.8125 μM): 0.03106 µM/s and 0.03492 µM/s and 0.04106 µM/s
- Velocity (wt IDH1 [2]; Fig. S2c, [MgCl2] 15.625 μM): 0.05387 µM/s and 0.06159 µM/s and 0.06633 µM/s
- Velocity (wt IDH1 [2]; Fig. S2c, [MgCl2] 31.25 μM): 0.08809 µM/s and 0.1025 µM/s and 0.1206 µM/s
- Velocity (wt IDH1 [2]; Fig. S2c, [MgCl2] 62.5 μM): 0.1304 µM/s and 0.136 µM/s and 0.1651 µM/s
- Velocity (wt IDH1 [2]; Fig. S2c, [MgCl2] 250 μM): 0.1516 µM/s and 0.1788 µM/s and 0.1943 µM/s
- Velocity (wt IDH1 [2]; Fig. S2c, [MgCl2] 500 μM): 0.1764 µM/s and 0.1771 µM/s and 0.2318 µM/s
- Velocity (wt IDH1 [2]; Fig. S2c, [MgCl2] 1000 μM): 0.1957 µM/s and 0.2076 µM/s and 0.2279 µM/s
- Velocity (wt IDH1 [2]; Fig. S2c, [MgCl2] 2000 μM): 0.2057 µM/s and 0.2199 µM/s and 0.2304 µM/s
- Velocity (wt IDH1 [2]; Fig. S2d, [MgCl2] 31.25 μM): 0.02369 µM/s and 0.03159 µM/s and 0.03685 µM/s
- Velocity (wt IDH1 [2]; Fig. S2d, [MgCl2] 62.5 μM): 0.03422 µM/s and 0.03685 µM/s and 0.04738 µM/s
- Velocity (wt IDH1 [2]; Fig. S2d, [MgCl2] 250 μM): 0.0737 µM/s and 0.08423 µM/s and 0.07633 µM/s
- Velocity (wt IDH1 [2]; Fig. S2d, [MgCl2] 1000 μM): 0.1027 µM/s and 0.08949 µM/s and 0.09476 µM/s
- Velocity (wt IDH1 [2]; Fig. S2d, [MgCl2] 2000 μM): 0.08949 µM/s and 0.1079 µM/s and 0.09212 µM/s

From PMC8560763, “Roles of metal ions in the selective inhibition of oncogenic variants of isocitrate dehydrogenase 1” (Communications Biology, 2021)
